Bridge positions count the residues as written; N and C are the ends. Square brackets hold non-standard residues; d marks the D form. Side chains are listed from the residue outwards. Peptide text beside a SMILES is read from it. I, II: the chains in the order shown. * marks the point of attachment. Stearoyl = CCCCCCCCCCCCCCCCCC(=O)*; Palmitoyl = CCCCCCCCCCCCCCCC(=O)*
What was measured:
HEK293 cells [1] = experiment: Cell viability by PrestoBlue assay after transfection, HEK cells; format: cell-based; conditions: 4 h
[2] = cited from earlier work
HeLa cells = experiment: Cell viability by PrestoBlue assay after transfection, HeLa cells; format: cell-based; conditions: 4 h
HEK293 cells [3] = format: cell-based; conditions: 1 h
in vitro = conditions: isolated enzyme proteinase k, pH 8

remaining at 1 h, 200 µM (in vitro) [%] | remaining at 2 h, 200 µM (in vitro) [%] | remaining at 3 h, 200 µM (in vitro) [%] | remaining at 12 h, 200 µM (in vitro) [%] | remaining at 24 h, 200 µM (in vitro) [%] | SMILES | % viability HEK cells (HEK293 cells [1]) [%] | pKa of dendrimer N-termini [2] | % viability HeLa cells (HeLa cells) [%] | transfection of HEK cells with protease inhibition (HEK293 cells [3]) [%]
 |  |  |  |  | CCCCCCCCCCCCCCCC(=O)NCCCC[C@@H](NC(=O)[C@@H](CCCCNC(=O)CCCCCCCCCCCCCCC)NC(=O)[C@@H](CCCCNC(=O)[C@@H](CC(C)C)NC(=O)[C@@H](CC(C)C)NC(=O)[C@@H](CCCCNC(=O)[C@@H](CC(C)C)NC(=O)[C@@H](CCCCN)NC(=O)[C@@H](CCCCNC(=O)[C@@H](CC(C)C)NC(=O)[C@H](N)CCCCN)NC(=O)[C@@H](CC(C)C)NC(=O)[C@H](N)CCCCN)NC(=O)[C@@H](CC(C)C)NC(=O)[C@@H](CCCCN)NC(=O)[C@@H](CCCCNC(=O)[C@@H](CC(C)C)NC(=O)[C@H](N)CCCCN)NC(=O)[C@@H](CC(C)C)NC(=O)[C@H](N)CCCCN)NC(=O)[C@@H](CC(C)C)NC(=O)[C@@H](CC(C)C)NC(=O)[C@@H](CCCCNC(=O)[C@@H](CC(C)C)NC(=O)[C@@H](CCCCN)NC(=O)[C@@H](CCCCNC(=O)[C@@H](CC(C)C)NC(=O)[C@H](N)CCCCN)NC(=O)[C@@H](CC(C)C)NC(=O)[C@H](N)CCCCN)NC(=O)[C@@H](CC(C)C)NC(=O)[C@@H](CCCCN)NC(=O)[C@@H](CCCCNC(=O)[C@@H](CC(C)C)NC(=O)[C@H](N)CCCCN)NC(=O)[C@@H](CC(C)C)NC(=O)[C@H](N)CCCCN)C(N)=O [DMH13, reference compound] (I: H-[dK][dL][dK]([dL-dK])[dK][dL][dK][dL][dL][dK][dK](Palmitoyl)[dK](Palmitoyl)-NH2 / II: H-[dK][dL][dK]([dL-dK])[dK][dL][dK][dL][dL] / III: H-[dK][dL][dK]([dL-dK])[dK][dL] / IV: H-[dK][dL][dK]([dL-dK])[dK][dL]; amide I:6-IV:C, I:9-II:C, II:6-III:C) | 96 ± 6 | ~6.5 |  | 
45 | 39.6 | 24.6 | 1.66 | 1.73 | CCCCCCCCCCCCCCCCCC(=O)NCCCC[C@H](NC(=O)[C@H](CCCCNC(=O)[C@H](CC(C)C)NC(=O)[C@H](CCCNC(=N)N)NC(=O)[C@H](CCCCNC(=O)[C@H](CC(C)C)NC(=O)[C@H](CCCNC(=N)N)NC(=O)[C@H](CCCCNC(=O)[C@H](CC(C)C)NC(=O)[C@@H](N)CCCNC(=N)N)NC(=O)[C@H](CC(C)C)NC(=O)[C@@H](N)CCCNC(=N)N)NC(=O)[C@H](CC(C)C)NC(=O)[C@H](CCCNC(=N)N)NC(=O)[C@H](CCCCNC(=O)[C@H](CC(C)C)NC(=O)[C@@H](N)CCCNC(=N)N)NC(=O)[C@H](CC(C)C)NC(=O)[C@@H](N)CCCNC(=N)N)NC(=O)[C@H](CC(C)C)NC(=O)[C@H](CCCNC(=N)N)NC(=O)[C@H](CCCCNC(=O)[C@H](CC(C)C)NC(=O)[C@H](CCCNC(=N)N)NC(=O)[C@H](CCCCNC(=O)[C@H](CC(C)C)NC(=O)[C@@H](N)CCCNC(=N)N)NC(=O)[C@H](CC(C)C)NC(=O)[C@@H](N)CCCNC(=N)N)NC(=O)[C@H](CC(C)C)NC(=O)[C@H](CCCNC(=N)N)NC(=O)[C@H](CCCCNC(=O)[C@H](CC(C)C)NC(=O)[C@@H](N)CCCNC(=N)N)NC(=O)[C@H](CC(C)C)NC(=O)[C@@H](N)CCCNC(=N)N)C(N)=O [Z23] (I: H-RLK([Leu-Arg])RLKRLKK(Stearoyl)-NH2 / II: H-RLK([Leu-Arg])RLKRL / III: H-RLK([Leu-Arg])RL / IV: H-RLK([Leu-Arg])RL; amide I:6-IV:C, I:9-II:C, II:6-III:C) | 83 ± 2 |  | 95 ± 5 | 46
 |  |  |  |  | CCCCCCCCCCCCCCCCCC(=O)NCCCC[C@@H](NC(=O)[C@@H](CCCCNC(=O)[C@@H](CC(C)C)NC(=O)[C@@H](CCCCN)NC(=O)[C@@H](CCCCNC(=O)[C@@H](CC(C)C)NC(=O)[C@@H](CCCCN)NC(=O)[C@@H](CCCCNC(=O)[C@@H](CC(C)C)NC(=O)[C@H](N)CCCCN)NC(=O)[C@@H](CC(C)C)NC(=O)[C@H](N)CCCCN)NC(=O)[C@@H](CC(C)C)NC(=O)[C@@H](CCCCN)NC(=O)[C@@H](CCCCNC(=O)[C@@H](CC(C)C)NC(=O)[C@H](N)CCCCN)NC(=O)[C@@H](CC(C)C)NC(=O)[C@H](N)CCCCN)NC(=O)[C@@H](CC(C)C)NC(=O)[C@@H](CCCCN)NC(=O)[C@@H](CCCCNC(=O)[C@@H](CC(C)C)NC(=O)[C@@H](CCCCN)NC(=O)[C@@H](CCCCNC(=O)[C@@H](CC(C)C)NC(=O)[C@H](N)CCCCN)NC(=O)[C@@H](CC(C)C)NC(=O)[C@H](N)CCCCN)NC(=O)[C@@H](CC(C)C)NC(=O)[C@@H](CCCCN)NC(=O)[C@@H](CCCCNC(=O)[C@@H](CC(C)C)NC(=O)[C@H](N)CCCCN)NC(=O)[C@@H](CC(C)C)NC(=O)[C@H](N)CCCCN)C(N)=O [Z26] (I: H-[dK][dL][dK]([dL-dK])[dK][dL][dK][dK][dL][dK][dK](Stearoyl)-NH2 / II: H-[dK][dL][dK]([dL-dK])[dK][dL][dK][dK][dL] / III: H-[dK][dL][dK]([dL-dK])[dK][dL] / IV: H-[dK][dL][dK]([dL-dK])[dK][dL]; amide I:6-IV:C, I:9-II:C, II:6-III:C) | 91.3 ± 0.2 |  | 91 ± 5 | 51
100 | 97.7 | 95.4 | 91.8 | 101 | CCCCCCCCCCCCCCCCCC(=O)NCCCC[C@@H](NC(=O)[C@@H](CCCCNC(=O)[C@@H](CC(C)C)NC(=O)[C@@H](CCCNC(=N)N)NC(=O)[C@@H](CCCCNC(=O)[C@@H](CC(C)C)NC(=O)[C@@H](CCCNC(=N)N)NC(=O)[C@@H](CCCCNC(=O)[C@@H](CC(C)C)NC(=O)[C@H](N)CCCNC(=N)N)NC(=O)[C@@H](CC(C)C)NC(=O)[C@H](N)CCCNC(=N)N)NC(=O)[C@@H](CC(C)C)NC(=O)[C@@H](CCCNC(=N)N)NC(=O)[C@@H](CCCCNC(=O)[C@@H](CC(C)C)NC(=O)[C@H](N)CCCNC(=N)N)NC(=O)[C@@H](CC(C)C)NC(=O)[C@H](N)CCCNC(=N)N)NC(=O)[C@@H](CC(C)C)NC(=O)[C@@H](CCCNC(=N)N)NC(=O)[C@@H](CCCCNC(=O)[C@@H](CC(C)C)NC(=O)[C@@H](CCCNC(=N)N)NC(=O)[C@@H](CCCCNC(=O)[C@@H](CC(C)C)NC(=O)[C@H](N)CCCNC(=N)N)NC(=O)[C@@H](CC(C)C)NC(=O)[C@H](N)CCCNC(=N)N)NC(=O)[C@@H](CC(C)C)NC(=O)[C@@H](CCCNC(=N)N)NC(=O)[C@@H](CCCCNC(=O)[C@@H](CC(C)C)NC(=O)[C@H](N)CCCNC(=N)N)NC(=O)[C@@H](CC(C)C)NC(=O)[C@H](N)CCCNC(=N)N)C(N)=O [Z34] (I: H-[dR][dL][dK]([dL-dR])[dR][dL][dK][dR][dL][dK][dK](Stearoyl)-NH2 / II: H-[dR][dL][dK]([dL-dR])[dR][dL][dK][dR][dL] / III: H-[dR][dL][dK]([dL-dR])[dR][dL] / IV: H-[dR][dL][dK]([dL-dR])[dR][dL]; amide I:6-IV:C, I:9-II:C, II:6-III:C) |  |  | 94 ± 6 | 69

Source: paper PMC11352961, “Peptide dendrimers transfecting CRISPR/Cas9 plasmid DNA: optimization and mechanism” (RSC Chemical Biology, 2024)
